For series [1], the system named is Trypanosoma cruzi. The series can be described thus: (§1) DNDI: Chagas in Vitro. Format: functional, organism-based, Tulahuen C4 (LacZ).
Series [2] has as its system Trypanosoma cruzi. The description is as §1. It is filed as functional, Tulahuen C4 (LacZ).
Series [3] addresses T1, Cytochrome P450 3A4 (Homo sapiens, UniProt P08684). The series can be described thus: DNDI: CYP Inhibition. Format: ADME.
Series [4] in a line: (§2) DNDI: Cytotoxicity in vitro, against rat skeletal myoblast (L-6) cells. The conditions noted are these: L-6 cells (skeletal myoblasts), IC50.
Series [5] concerns Trypanosoma brucei rhodesiense. The series can be described thus: DNDI: HAT in Vitro. Format: functional, organism-based, ATCC 30027.
Series [6] relates to L6. The series is described as §2. The conditions noted are these: L-6 cells (skeletal myoblasts).
Series [7] can be described thus: DNDI: Lipophilicity (gLogD) at pH 3. The conditions noted are these: buffer, pH 3, logD.
A short description of series [8]: DNDI: Lipophilicity (gLogD) at pH 7.4. The note with it: buffer, pH 7.4, logD.
Series [9] is described as follows: DNDI: Solubility in 0.01M HCl at pH 2 determined by nephelometry. The conditions noted are these: 0.01M HCl, pH 2, Kinetic.
The nature of series [10]: DNDI: Solubility in phosphate buffer at pH 6.5 determined by nephelometry. The conditions noted are these: phosphate buffer, pH 6.5, Kinetic.
Series [11] can be described thus: in vitro. The note with it: human, microsomes.
Series [12] can be described thus: in vitro. The note with it: human, microsomes, EH.
Series [13] can be described thus: in vitro. The conditions noted are these: human, microsomes, t (1 / 2).
Series [14] in a line: DNDI: Cytotoxicity in vitro, against human lung fibroblast (MRC-5) cells. The note with it: MRC-5 cells (lung fibroblasts).
Series [15] deals with Leishmania infantum. The series can be described thus: DNDI: Leish (macro) in Vitro. It is filed as functional, organism-based, MHOM/MA(BE)/67.
The target of series [16] is T1, Cytochrome P450 3A4. In words: DNDI: Human CYP3A4 inhibition determined using 6b-hydroxylation of testosterone.
The test system of series [17] is Leishmania donovani. In words: DNDI: Leish macro in vitro at 10 uM. Format: functional. The conditions noted are these: MHOM/ET/67/L82.
Where [18] appears, read: Trypanosoma cruzi, Tulahuen C4 (LacZ).

≈ marks a conversion by molar mass, not a printed value. Where “and” joins values, the source holds several entries; their conditions need not be identical. Identical values can stand only once. Some results are limits rather than exact numbers.

T1 sequence (P08684 whole entry): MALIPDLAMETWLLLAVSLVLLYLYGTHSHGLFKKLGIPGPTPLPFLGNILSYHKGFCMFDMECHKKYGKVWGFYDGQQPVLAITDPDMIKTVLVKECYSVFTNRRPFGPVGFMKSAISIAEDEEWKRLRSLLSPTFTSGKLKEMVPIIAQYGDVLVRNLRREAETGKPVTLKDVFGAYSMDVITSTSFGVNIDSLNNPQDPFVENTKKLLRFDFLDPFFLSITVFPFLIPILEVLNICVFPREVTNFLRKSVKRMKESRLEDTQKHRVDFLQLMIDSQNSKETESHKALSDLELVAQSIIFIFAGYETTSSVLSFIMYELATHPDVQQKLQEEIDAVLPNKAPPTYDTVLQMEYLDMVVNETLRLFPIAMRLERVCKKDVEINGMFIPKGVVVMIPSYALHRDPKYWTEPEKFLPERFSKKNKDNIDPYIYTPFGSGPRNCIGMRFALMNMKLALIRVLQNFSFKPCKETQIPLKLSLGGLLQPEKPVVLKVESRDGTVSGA

Take `OC(COc1ccc2cc(Br)ccc2c1)Cn1ccnc1` (configuration not stated): the IC50 was 0.03 µM in series [1] (setting [18]); 0.7 µM in series [3]; 65.9 µM in series [4]; greater than 10 µM in series [5] (Trypanosoma brucei, ATCC 30027). Moreover, the 90% effect concentration (IC90) in series [2] (setting [18]) is 0.193 µM.

As to `O=c1c2ccccc2nc(-c2ccc(-c3ccccc3)cc2)n1Cc1cccnc1`, the IC50 in series [1] was 0.026 µM; in [1] (setting [18]) it was 0.0255 µM; in series [3] it was greater than 20 µM; in [4], 16.1 µM; in series [6], 19.4 µM; in [5], 23.3 µM and > 10 µM. Also, the IC90 in [2] was 0.257 µM and > 0.1 µM. Moreover, the results for the chromatographic logD in series [7] and in series [8] were 3.4 and 3.8, respectively. Besides, the kinetic solubility in [9] is greater than 100 µg/mL; in series [10], 1.6 µg/mL (≈ 4.11 µM). The microsomal CLint in series [11] came out at 48 µL/min/mg. For the same compound, the hepatic extraction ratio in [12] came to 0.73. The half-life in series [13] turned out to be 36 min.

With `CCN(c1ccccc1)S(=O)(=O)c1ccc(NC(=O)CN(C)C2CCN(C)CC2)c(Cl)c1.Cl`, the IC50 in [14] is 40.6 µM; in [5] (Trypanosoma brucei, ATCC 30027) it was 1.42 µM; in [15] it was 11.3 µM and 24.1 µM. The chromatographic logD in series [7] stood at 2.9; in [8], 4.4. Also, the solubility (kinetic) in series [9] and in series [10] was greater than 100 µg/mL each time. The same compound came in with an intrinsic metabolic clearance (microsomal CLint) in series [11] of 169 µL/min/mg. The half-life in series [13] worked out at 10 min.

`CCN(c1ccccc1)S(=O)(=O)c1ccc(Cl)c(NC(=O)c2ccc3c(c2)CCNC3)c1`: the IC50 in [1] (setting [18]) is greater than 1 µM; in series [16] it was 5.83 µM; in [4], 19.9 µM; in series [14] it was 29.4 µM; in series [5] (Trypanosoma brucei, ATCC 30027), 0.604 µM; in [15] it was 2.16 µM and 8 µM. In [2] (setting [18]), the concentration for an effect of 90% (IC90) is greater than 1 µM. Besides, the solubility (kinetic) is 95.9 µg/mL (≈ 204 µM) in [9] and 14.5 µg/mL (≈ 30.8 µM) in series [10]. For the same compound, in [11], the microsomal CLint turned out to be 334 µL/min/mg. In series [12], the hepatic extraction ratio worked out at 0.943. For the same compound, in series [13], the half-life worked out at 5.2 min.

For the compound `N#Cc1ccc(-n2ccnc2)c(NC(=O)c2cnc(-c3ccccc3)nc2)c1`, the concentration for half-maximal inhibition (IC50) is 0.084 µM in series [1]; greater than 0.1 µM in series [1] (setting [18]); greater than 20 µM in series [16]; greater than 100 µM in series [4]; greater than 10 µM in [5] (Trypanosoma brucei, ATCC 30027). The compound also had an IC90 in series [2] (setting [18]) greater than 0.1 µM. The compound also had an inhibition at 10 µM in series [17] of 53.5%. For the same compound, the chromatographic logD was determined as 1.9 in series [7] and 2.7 in series [8]. Moreover, the kinetic solubility stood at 50 µg/mL (≈ 136 µM) in series [9] and 3.1 µg/mL (≈ 8.46 µM) in series [10]. The compound also gave a microsomal CLint in series [11] of 15 µL/min/mg. Besides, the hepatic extraction ratio in series [12] turned out to be 0.46. Further, the half-life in series [13] worked out at 113 min.

Turning to `CS(=O)(=O)c1ccc(-n2ccnc2)c(NC(=O)c2cnc(-c3ccccc3)nc2)c1`, the IC50 is 0.09 µM in series [1] (setting [18]); greater than 20 µM in [16]; greater than 100 µM in [4]; greater than 10 µM in [5] (Trypanosoma brucei, ATCC 30027). This compound registered an IC90 in series [2] (setting [18]) greater than 0.1 µM. The compound further gave an inhibition at 10 µM in series [17] of 48.2%. In addition, the chromatographic logD in series [7] was 1.7; in series [8] it was 2.3. Besides, the solubility (kinetic) in [9] stood at 50 µg/mL (≈ 119 µM); in series [10], 12.5 µg/mL (≈ 29.8 µM). In series [11], this compound returned a microsomal CLint of less than 7 µL/min/mg. For the same compound, the hepatic extraction ratio in series [12] was less than 0.28. This compound registered a half-life in [13] greater than 250 min.

(Values after ChEMBL document CHEMBL2448688, “Selection and optimization of hits from a high-throughput phenotypic screen against Trypanosoma cruzi. Exported from HEOS 25-Oct-2013. See also related datasets CHEMBL3137440 and CHEMBL3137386”.)
